Patent US10717758B2, “D-amino acid compounds for liver disease” (priority 2012, dated 2020)

Legend:
fresh mouse hepatocyte = experiment: Release of active metabolite in primary hepatocytes (mouse); format: in vitro ADME; conditions: 10 μM
Protocol: Plates of fresh human and mouse hepatocytes were obtained on ice. The medium was removed and replaced with hepatocyte culture medium (William's E supplemented with penicillin-streptomycin, 1% L-glutamine, 1% insulin-transferrin-selenium and 0.1 μM Dexamethasone (Invitrogen) or with Invitro GRO HI medium complemented with Torpedo antibiotics (Celsis)). Cells were left overnight in an incubator at 37° C. to acclimatize to culture and the medium.
Hepatocyte incubations were conducted at a final volume of 0.5 mL hepatocyte culture medium/well (0.8 million cells/well for human and 0.5 million cells/well for mouse; 12 well plate no overlay, collagen coat). Culture medium from overnight incubation of cells was removed and replaced with fresh medium, pre-warmed to 37° C., containing 10 μM of test compound from a stock solution in DMSO (final DMSO concentration was 0.1%). At each specific time point, incubation medium was removed and cell monolayers were carefully washed two times with ice-cold PBS. Following the last wash, all PBS was carefully removed and 1.0 mL of extraction solution (ice-cold 70% methanol/30% water) added. Cells were scraped off and suspended in the extraction solution, transferred to 2 mL polypropylene microfuge tubes and intracellular contents extracted overnight at −20° C.
After the overnight treatment the cellular extracts were prepared by centrifugation at 16,000×g for 10 min to remove cellular debris. The remaining sample was then dried using a refrigerated centrivap concentrator. Dry extracts were reconstituted in 1000 μL of HPLC-grade water and centrifuged at 16,000×g for 10 min. Aliquots (100 μL each) of the supernatant were transferred into a 96 well plate and internal standard (4 ng/mL final concentration) was added as the internal standard (IS) for LC-MS/MS analysis.
The incubation time points were 6, 24 and 48 hours for human hepatocytes and 1, 4, 8, 12 and 24 hours for mouse hepatocytes.

[1] = Plasma nucleoside and liver triphosphate PK after single oral dose (Example 4); format: in vivo, CD-1 mice; conditions: at 1 μmol/kg, single oral dose 10 mg/kg in PEG 200
Protocol: Plasma samples were analyzed for nucleoside by LC-MS/MS. The internal standard (IS) was either 2′-MeG-D3 or tiapride. For protein precipitation and extraction, each plasma sample (50 μL) was treated with 500 μL of 0.2% formic acid in acetonitrile and 20 μL of the internal standard working solution. After vortexing and centrifugation, 500 μL of the sample extracts were transferred to a new plate, dried under N2 at ˜28° C. and reconstituted with 75 μL of 0.2% FA in water. The extracts were chromatographed on an Aquasil C18 column using a gradient system of 0.2% formic acid in water and acetonitrile. The analytes were detected and quantified by tandem mass spectrometry in positive ion mode on an MDS Sciex API5000 equipped with a Turbo Ionspray® interface. The calibration range was 0.500 (LLOQ) to 200 ng/mL in mouse plasma.
Internal standard solution was added to the homogenate followed by neutralization with 20% ammonium hydroxide solution and addition of 500 μL 1% formic acid. The tissue samples were extracted by weak anion exchange solid phase extraction (SPE). Post extraction, the eluates were evaporated under nitrogen, followed by reconstitution before injection onto the LC-MS/MS system.

## CC(C)OC(=O)[C@@H](C)NP(=O)(OC[C@H]1O[C@@H](n2ccc(=O)[nH]c2=O)[C@](C)(Cl)[C@@H]1O)Oc1ccccc1 (single isomer, unassigned; diastereomer 2) [40i Diastereomer 2]
Fresh mouse hepatocyte
  MsH AUC: 1073 pmol.hr/mill cells
  MsH Cmax: 89 pmol/mill cells
[1]
  Ms Plasma nucleoside AUC: 0.0036 M·s
[1]; read-out: Ms Plasma nucleoside Cmax
  Cmax: 64 nM
